Measured values from patent US12145947B2, “Pyrimidine based modulators and uses thereof” (Quanta Therapeutics, Inc., priority 2022, dated 2024).

Columns and labels:
[1] = target: T1, GST-tagged KRAS-G12D (2-169) (Homo sapiens, UniProt P01116, G12D); assay: Nucleotide exchange assay (NEA), SOS-mediated, HTRF, KRAS G12D; format: biochemical; conditions: IC50 extracted at 30 min
T1 construct: GST-tagged KRAS-G12D (2-169, Reaction Biology, MSC-11-539); purchased Reaction Biology MSC-11-539 (KRAS G12D); MSC-11-502 (SOS1cat)
Text: This activity is tightly regulated by GTPase activating proteins (GAPs) and guanine nucleotide exchange factors (GEFs). GEFs, such as SOS1/2, activate Ras proteins by exchanging GDP for GTP, thus returning Ras to its active conformation (Simanshu, Nissley, & McCormick, 2017). […] Homogenous time resolved fluorescence (HTRF) was used to detect SOS-mediated binding of a fluorescent GTP analog, GTP-DY-647P1 (Jena Biosciences NU-820-647P1) to GST-tagged KRAS-G12D (2-169, Reaction Biology, MSC-11-539) or to GST-tagged KRAS-G12V (2-169, Reaction Biology, MSC-11-540).
GST-tagged KRAS-G12D (2-169) and anti-GST MAb Tb Cryptate Gold (CisBio 61GSTTLB) were diluted into assay buffer (20 mM HEPES, pH 7.3, 150 mM NaCl, 5 mM MgCl2, 0.05% BSA 0.0025% NP40, 1 mM DTT) to prepare a 2.5× donor solution. 5× compound was added to the protein mixture and incubated for 1 h at RT. 2.5× acceptor solution containing SOSIcat (564-1049, Reaction Biology MSC-11-502) and GTP-DY-647P1 were then added to the donor KRAS mixture such that the final concentration of the reaction contained 5 nM GST-tagged KRAS-G12D (2-169), 20 nM SOScat, and 150 nM GTP. The reaction was monitored using at RT with the Envision multimode plate reader (Ex/Em 337/665, […]) up to 90 minutes at 5 minute intervals. To monitor KRAS-G12V Sos-mediated nucleotide exchange, 80 nM SOS was added to reaction instead of 20 nM. All other components were the same as previously described. Data was blanked to reactions without SOS1 and % inhibition was calculated such that DMSO only=0% and blank=100%. Curve fitting was done using a 4 parameter fit. Reported IC50 values were extracted at 30 min and 90 min for the KRAS-G12D and KRAS-G12V assays, respectively.
Curve fitting was done using a 4 parameter fit. NEA KRAS G12D IC50 (uM) values of selected compounds are depicted in Table 2 with compounds having a value <0.01 uM as ++++; >0.01 uM to 0.1 uM as +++; >0.1 uM to 1 uM as ++; >1 uM to 20 uM as +; and >20 uM as NA.

[2] = target: T2, KRAS G12D/RAF1 (Homo sapiens, UniProt P01116, G12D); assay: Protein-protein interaction (PPI) HTRF assay KRAS G12D/RAF1; format: binding
T2 construct: His6-MBP (N, cleaved yes); made in house; host or cells: E. coli
Procedure: Biotinylated KRAS wt and KRAS G12DNV proteins were expressed and purified in conditions similar to those previously reported (Tran, et al., 2021) (Zhang, et al., 2020). Briefly, KRAS (1-169) proteins were expressed in E. coli at 18° C. with an upstream TEV cleavage site (ENLFYQS (SEQ ID NO: 6)) followed an Avi tag sequence ([…] (SEQ ID NO: 7)). KRAS expression constructs contained both a His6 (SEQ ID NO: 8) and maltose-binding protein (MBP) tags at the N-terminus for Ni-NTA column purification prior to overnight TEV cleavage and MBP column purification. The avi-tagged NRAS expression construct contained both a His6 tag (SEQ ID NO: 8) and SUMO cleavage sige at the N-terminus for Ni-NTA column purification followed by His-ULPi digestion overnight. All avi-tagged RAS proteins were dialyzed into buffer containing ATP, biotin, and BirA followed by purification over a second Ni-NTA column and then run over a size exclusion HiLoad™ 26/600 Superdex™ column in 20 mM HEPES, pH 7.5, 300 mM NaCl, 5 mM MgCl2, and 1 mM TCEP. Fractions containing the protein of interest were pooled, concentrated, and confirmed by intact mass spectrometry. To prepare ‘GTP’ loaded KRAS and NRAS, biotinylated KRAS or NRAS was nucleotide exchanged from GDP-bound protein to GppNHp-bound (Jena Biosciences, NU-401-50) protein in the presence of alkaline phosphatase and excess GppNHp as previously described and the resulting nucleotide content was confirmed by HPLC reverse phase analytical chromatography (Donohue, et al., 2019) (Tran, et al., 2021).
His-tagged RAF1 (52-131) was similarly expressed in E. coli at 18° C. overnight with an upstream TEV cleavage site. His-tagged RAF1 expression construct contained both a His6 (SEQ ID NO: 8) and MBP tags at the N-terminus for Ni-NTA column purification followed by MBP-tagged TEV digestion overnight. RAF1 protein samples were further purified over a MBP column followed by a Ni-NTA column and a second MBP column. The fractions containing the protein of interest were pooled, concentrated, and further purified over a HiLoad™ 16/600 Superdex™ 75 pg size exclusion column into 20 mM HEPES, pH8.0, 200 mM NaCl, 5 mM TCEP.
When RAS proteins are in the active GTP-bound conformation, they bind the effector protein RAF1 at the N-terminus Ras-binding domain (RBD, residues 52-131) (Tran, et al., 2021). Homogenous time resolved fluorescence (HTRF) was used to monitor the interaction between wt or mutant KRAS and RAF1 or wt NRAS and RAFT. Compounds were assayed in the presence of KRAS G12D/V and RAF1 versus wt KRAS to assess activity against mutant and w.t. KRAS. Similarly, compounds were then assayed in the presence of w.t. NRAS and RAF1 to assess RAS isoform selectivity. In all assay formats, His-tagged RAF1 protein was incubated with the HTRF donor, anti-6His (“6His” disclosed as SEQ ID NO: 8) Tb Cryptate gold (Cisbio 61DB10RDF), and biotinylated RAS proteins were incubated with the HTRF acceptor, streptavidin-d2 (CisBio 610SADLA). The intensity of the fluorescence signal emitted is proportional to binding between the two proteins. The donor solution was prepared by mixing 16 nM His-tagged RAF1 in protein dilution buffer with 1:100 anti-6His (“6His” disclosed as SEQ ID NO: 8) Tb cryptate in PPI-Terbium detection buffer. 16 nM biotinylated RAS protein was diluted into protein dilution buffer (50 mM Tris-HCl pH 7.5, 150 mM NaCl, 0.1 mM MgCl2, 1 mM TCEP, 0.005% Tween20) and mixed with 1:2000 Streptavidin-d2 diluted in PPI-Terbium detection buffer (CisBio 61DBTORDF). 50× compound in DMSO was mixed with 16 nM KRAS-acceptor solution and incubated for 30 minutes at room temperature. After compound pre-incubation with KRAS, the RAF1 donor solution was added to the KRAS-acceptor solution and incubated for 1 hour at room temperature. The fluorescence signal emitted was monitored at 665 nm and 615 nm using an Envision multimode plate reader. […]

T2 sequence (P01116 with tags, fused parts or gaps isoform P01116-2 G12D): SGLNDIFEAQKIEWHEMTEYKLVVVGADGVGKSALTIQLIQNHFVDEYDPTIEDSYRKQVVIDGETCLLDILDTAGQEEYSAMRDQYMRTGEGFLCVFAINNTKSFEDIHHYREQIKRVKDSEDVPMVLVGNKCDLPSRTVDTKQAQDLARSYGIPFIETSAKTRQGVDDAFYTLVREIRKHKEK
T1 sequence (P01116 2-169 isoform P01116-2 G12D): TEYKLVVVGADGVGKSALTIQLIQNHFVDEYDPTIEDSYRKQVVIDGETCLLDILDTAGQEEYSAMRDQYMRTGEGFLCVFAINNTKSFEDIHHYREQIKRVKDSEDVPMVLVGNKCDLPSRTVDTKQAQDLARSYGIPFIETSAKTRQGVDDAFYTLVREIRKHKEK

Row | SMILES | IC50 ([1]; Table 4) [µM] | IC50 ([2]; Table 4) [µM] | IC50 ([1]; Table 2) [µM] | IC50 ([2]; Table 2) [µM]
1 | N#Cc1c(N2C[C@H]3CC[C@@H](C2)N3)nc(OCc2[nH]ncc2F)nc1N1CC2(CCc3sc(N)c(C#N)c32)C1 [Compound 90, 2-amino-1′-[5-cyano-6-[(1R,5S)-3,8-diazabicyclo[3.2.1]octan-3-yl]-2-[(4-fluoro-1H-pyrazol-5-yl)methoxy]pyrimidin-4-yl]spiro[5,6-dihydrocyclopenta[b]thiophene-4,3′-azetidine]-3-carbonitrile] | 0.01 to 0.1 | 10 to 100 |  | 
2 | Oc1ccc2c(c1)-c1ccccc1C21CN(c2cc(N3C[C@H]4CC[C@@H](C3)N4)nc(OC[C@@]34CCCN3C[C@H](F)C4)n2)C1 [Compound 1, 1-[6-[(1R,5S)-3,8-diazabicyclo[3.2.1]octan-3-yl]-2-[[(2R,8S)-2-fluoro-1,2,3,5,6,7-hexahydropyrrolizin-8-yl]methoxy]pyrimidin-4-yl]spiro[azetidine-3,9′-fluorene]-3′-ol] | 0.1 to 1 | 10 to 100 | 0.1 to 1 | 10 to 100
3 | N#Cc1c(N2C[C@H]3CC[C@@H](C2)N3)nc(OCc2n[nH]cc2Cl)nc1N1CC2(CCc3sc(N)c(C#N)c32)C1 [Compound 104, 2-amino-1′-[2-[(4-chloro-1H-pyrazol-3-yl)methoxy]-5-cyano-6-[(1R,5S)-3,8-diazabicyclo[3.2.1]octan-3-yl]pyrimidin-4-yl]spiro[5,6-dihydrocyclopenta[b]thiophene-4,3′-azetidine]-3-carbonitrile] | < 0.01 | 10 to 100 |  | 
4 | N#Cc1c(N2C[C@H]3CC[C@@H](C2)N3)nc(OCc2cn[nH]n2)nc1N1CC2(CCc3sc(N)c(C#N)c32)C1 [Compound 103, 2-amino-1′-[5-cyano-6-[(1R,5S)-3,8-diazabicyclo[3.2.1]octan-3-yl]-2-(2H-triazol-4-ylmethoxy)pyrimidin-4-yl]spiro[5,6-dihydrocyclopenta[b]thiophene-4,3′-azetidine]-3-carbonitrile] | 0.01 to 0.1 | 10 to 100 |  | 
5 | CO/N=C1/CCCN(c2nc(OC[C@@]34CCCN3C[C@H](F)C4)nc(N3CC4(CCc5sc(N)c(C#N)c54)C3)c2C#N)CC1 [Compound 59, 2-amino-1′-[5-cyano-2-[[(2R,8S)-2-fluoro-1,2,3,5,6,7-hexahydropyrrolizin-8-yl]methoxy]-6-[(4Z)-4-methoxyiminoazepan-1-yl]pyrimidin-4-yl]spiro[5,6-dihydrocyclopenta[b]thiophene-4,3′-azetidine]-3-carbonitrile] | 0.1 to 1 | 10 to 100 |  | 
6 | N#Cc1c(N2C[C@H]3CC[C@@H](C2)N3)nc(OCC2(CN3CCOCC3)COC2)nc1N1CC2(CCc3sc(N)c(C#N)c32)C1 [Compound 64, 2-amino-1′-[5-cyano-2-[[3-(morpholinomethyl)oxetan-3-yl]methoxy]-6-[(1R,5S)-3,8-diazabicyclo[3.2.1]octan-3-yl]pyrimidin-4-yl]spiro[5,6-dihydrocyclopenta[b]thiophene-4,3′-azetidine]-3-carbonitrile] | < 0.01 | 1 to 10 |  | 
7 | C[C@@]1(O)CCCN(c2nc(OC[C@@]34CCCN3C[C@H](F)C4)nc(N3CC4(CCc5sc(N)c(C#N)c54)C3)c2F)C1 [Compound 6, 2-amino-1′-[5-fluoro-2-[[(2R,8S)-2-fluoro-1,2,3,5,6,7-hexahydropyrrolizin-8-yl]methoxy]-6-[(3R)-3-hydroxy-3-methyl-1-piperidyl]pyrimidin-4-yl]spiro[5,6-dihydrocyclopenta[b]thiophene-4,3′-azetidine]-3-carbonitrile] | 0.1 to 1 | 10 to 100 |  | 
8 | N#Cc1c(N2C[C@H]3CC[C@@H](C2)N3)nc(OCC2(CN3CCOCC3)CC2)nc1N1CC2(C1)C(=O)CCc1ccccc12 [Compound 50, 4-[(1R,5S)-3,8-diazabicyclo[3.2.1]octan-3-yl]-2-[[1-(morpholinomethyl)cyclopropyl]methoxy]-6-(2′-oxospiro[azetidine-3,1′-tetralin]-1-yl)pyrimidine-5-carbonitrile] | 1 to 20 | > 100 |  | 
